# Marks after values point to notes of the source that are not given here.
# Tests used:
# [1] = biological target: full-length human RORγt (GAL4-DBD-RORγt fusion) in HEK293T cells (Homo sapiens (Human), UniProt P51449); test: RORγt (full-length human) reporter assay, conditions A or B; format: cell-based; settings: for IC50: HEK293T cells, read-out: RORγt (FL) Reporter Assay A or B, IC50; for inhibition at 3 µM / RORγt (FL) Reporter Assay A or B, % inhibition: 3 μM compound concentration (footnote *)
# Sequence of full-length human RORγt (GAL4-DBD-RORγt fusion) in HEK293T cells (P51449 other isoform, or with tags, fused parts or gaps): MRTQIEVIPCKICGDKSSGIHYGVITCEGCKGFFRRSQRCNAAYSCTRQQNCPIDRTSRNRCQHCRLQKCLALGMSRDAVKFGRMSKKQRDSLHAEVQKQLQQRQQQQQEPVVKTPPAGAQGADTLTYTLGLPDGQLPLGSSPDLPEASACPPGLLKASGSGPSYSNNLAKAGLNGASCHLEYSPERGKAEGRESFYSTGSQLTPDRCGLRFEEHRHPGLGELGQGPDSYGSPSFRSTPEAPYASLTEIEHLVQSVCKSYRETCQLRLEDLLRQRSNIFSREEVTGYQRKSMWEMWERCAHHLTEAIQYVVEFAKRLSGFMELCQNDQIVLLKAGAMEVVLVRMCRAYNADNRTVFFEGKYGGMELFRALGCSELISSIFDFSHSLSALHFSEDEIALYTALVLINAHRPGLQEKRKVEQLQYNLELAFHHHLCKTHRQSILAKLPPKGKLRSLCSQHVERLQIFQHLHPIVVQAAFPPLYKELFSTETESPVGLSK
# Procedure: RORγt (Full-Length Human) Reporter Assay:
# (§1) HEK293T cells were plated at 35,000 per well in 96-well plate in medium of DMEM with 10% FBS. […] After overnight (16 to 20 hours) incubation, media were removed and cells were lysed with 50 μL Glo Lysis Buffer (Promega) for 10-15 minutes followed by 10 minute incubation with 50 μL Dual Glo reagent (Promega) at room temperature. Firefly luciferase luminescence was measured using a BMG Pherastar plate reader. To each well, 50 μL Stop and Glo reagent was added and incubated for 10 minutes at room temperature. Renilla luminescence was measured using a BMG Pherastar plate reader. To calculate the effect of compounds on RORγt activity, firefly values were normalized against values of DMSO only and values of reference compound at saturating concentration, then further normalized against Renilla signals. IC50s were generated by plotting final Renilla normalized data against compound concentration and percent inhibition was calculated against DMSO control.
# as §1, with “at 8750 cells” for “at 35,000”, “in 384-well” for “in 96-well”, “with 20” for “with 50”, “well, 20” for “well, 50”
# [2] = biological target: human RORγt ligand binding domain (RORγt LBD) (Homo sapiens (Human), UniProt P51449); test: RORγt ThermoFluor assay
# Sequence of human RORγt ligand binding domain (RORγt LBD) (P51449 other isoform, or with tags, fused parts or gaps): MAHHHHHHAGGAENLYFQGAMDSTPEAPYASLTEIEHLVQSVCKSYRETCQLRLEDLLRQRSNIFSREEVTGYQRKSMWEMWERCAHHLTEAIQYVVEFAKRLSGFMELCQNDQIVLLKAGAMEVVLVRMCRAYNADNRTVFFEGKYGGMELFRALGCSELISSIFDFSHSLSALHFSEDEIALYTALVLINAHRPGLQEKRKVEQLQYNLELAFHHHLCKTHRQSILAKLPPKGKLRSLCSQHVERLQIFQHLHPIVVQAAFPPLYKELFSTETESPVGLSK
# Source text: ThermoFluor® is a fluorescence based assay that estimates ligand binding affinities by measuring the effect of a ligand on protein thermal stability (Pantoliano, M. W., Petrella, E. C., Kwasnoski, J. D., Lobanov, V. S., Myslik, J., Graf, E., Carver, T., Asel, E., Springer, B. A., Lane, P., and Salemme, F. R. (2001) High-density miniaturized thermal shift assays as a general strategy for drug discovery. J Biomol Screen 6, 429-40, and Matulis, D., Kranz, J. K., Salemme, F. R., and Todd, M. J. (2005) Thermodynamic stability of carbonic anhydrase: measurements of binding affinity and stoichiometry using ThermoFluor. Biochemistry 44, 5258-66). This approach is applicable to a wide variety of systems, and rigorous in theoretical interpretation through quantitation of equilibrium binding constants (KD).
# The shift in the melting point described as a ΔTm is proportional to the concentration and affinity of the ligand. The compound potency may be compared as a rank order of either values at a single compound concentration or in terms of KD values, estimated from concentration response curves.
# RORγt ThermoFluor® Assay Construct
# For the RORγt construct used in the ThermoFluor® assay, numbering for the nucleotide sequences was based on the reference sequence for human RORγt, transcript variant 2, NCBI Accession: NM 001001523.1 (SEQ ID NO:1). Nucleotides 850-1635 (SEQ ID NO:2) coding for the wild type human RORγt ligand binding domain (RORγt LBD) were cloned into the pHIS1 vector, a modified pET E. coli expression vector (Accelagen, San Diego), containing an in-frame N-terminal His-tag and a TurboTEV protease cleavage site (ENLYFQG, SEQ ID NO:3) upstream of the cloned insert sequence. The amino acid sequence for the RORγt construct used in the Thermofluor® assay is shown as SEQ ID NO:4.
# ThermoFluor® experiments were carried out using instruments owned by Janssen Research and Development, L.L.C. through its acquisition of 3-Dimensional Pharmaceuticals, Inc. 1,8-ANS (Invitrogen) was used as a fluorescent dye. Protein and compound solutions are dispensed into black 384-well polypropylene PCR microplates (Abgene) and overlayed with silicone oil (1 μL, Fluka, type DC 200) to prevent evaporation.
# Bar-coded assay plates are robotically loaded onto a thermostatically controlled PCR-type thermal block and then heated at a typical ramp-rate of 1° C./min for all experiments. Fluorescence was measured by continuous illumination with UV light (Hamamatsu LC6) supplied via fiber optic and filtered through a band-pass filter (380-400 nm; >6 OD cutoff). Fluorescence emission of the entire 384-well plate was detected by measuring light intensity using a CCD camera (Sensys, Roper Scientific) filtered to detect 500±25 nm, resulting in simultaneous and independent readings of all 384 wells. Images were collected at each temperature, and the sum of the pixel intensity in a given area of the assay plate was recorded versus temperature. Reference wells contained RORγt without compounds, and the assay conditions were as follows:
# Project compounds were arranged in a pre-dosed mother plate (Greiner Bio-one) wherein compounds are serially diluted in 100% DMSO by 1:2 from a high concentration of 10 mM over 12 columns within a series (column 12 is a reference well containing DMSO, no compound). The compounds were robotically dispensed directly into assay plates (1×=46 nL) using a Hummingbird capillary liquid handling instrument (Digilab). Following compound dispense, protein and dye in buffer was added to achieve the final assay volume of 3 μL, followed by 1 μL of silicone oil.
# The binding affinity was estimated as described previously (Matulis, D., Kranz, J. K., Salemme, F. R., and Todd, M. J. (2005) Thermodynamic stability of carbonic anhydrase: measurements of binding affinity and stoichiometry using ThermoFluor®. Biochemistry 44, 5258-66) using the following thermodynamic parameters of protein unfolding:
# Reference RORγt Tm: 47.8° C.
# [3] = HEK-293T, read-out: RORγt (FL) Reporter Assay A or B, % inhibition
Compound,IC50 [1] [nM],"inhibition at 3 µM [1, 3] [%]",Kd [2] [nM],"inhibition at 1 µM ([1]; HEK-293T, 1 μM compound concentration (footnote ***), read-out: RORγt (FL) Reporter Assay A or B, % inhibition) [%]","RORγt (FL) Reporter Assay A or B, % inhibition [1]"
"CCn1nc(C(=O)NC[C@@]2(O)CC[C@H](S(C)(=O)=O)C[C@@H]2O)c(Cl)c1-c1cnc(CC(C)(C)C(F)F)cc1OC(F)F (stereo in doubt) [Example 39, 4-Chloro-5-(6-(3,3-difluoro-2,2-dimethylpropyl)-4-(difluoromethoxy)pyridin-3-yl)-N-(((1S*,2S*,4S*)-1,2-dihydroxy-4-(methylsulfonyl)cyclohexyl)methyl)-1-ethyl-1H-pyrazole-3-carboxamide]",730,72,40,–,–
"CCn1nc(C(=O)NC[C@]2(O)CC[C@@H](S(C)(=O)=O)C[C@H]2O)c(Cl)c1-c1cnc(CC(C)(C)C(F)F)cc1OC(F)F (stereo in doubt) [Example 40, 4-Chloro-5-(6-(3,3-difluoro-2,2-dimethylpropyl)-4-(difluoromethoxy)pyridin-3-yl)-N-(((1R*,2R*,4R*)-1,2-dihydroxy-4-(methylsulfonyl)cyclohexyl)methyl)-1-ethyl-1H-pyrazole-3-carboxamide]",570,84,40,–,–
"CCn1nc(C(=O)NC[C@@]2(O)CC[C@H](S(C)(=O)=O)C[C@@H]2O)c(C)c1-c1cnc(CC(C)(C)C(F)F)cc1OC(F)F (stereo in doubt) [Example 43, 5-(6-(3,3-Difluoro-2,2-dimethylpropyl)-4-(difluoromethoxy)pyridin-3-yl)-N-(41S*,2S*,4S*)-1,2-dihydroxy-4-(methylsulfonyl)cyclohexyl)methyl)-1-ethyl-4-methyl-1H-pyrazole-3-carboxamide]",320,–,66,84,–
"CCn1nc(C(=O)NC[C@]2(O)CC[C@@H](S(C)(=O)=O)C[C@H]2O)c(C)c1-c1cnc(CC(C)(C)C(F)F)cc1OC(F)F (stereo in doubt) [Example 44, 5-(6-(3,3-Difluoro-2,2-dimethylpropyl)-4-(difluoromethoxy)pyridin-3-yl)-N-(((1R*,2R*,4R*)-1,2-dihydroxy-4-(methylsulfonyl)cyclohexyl)methyl)-1-ethyl-4-methyl-1H-pyrazole-3-carboxamide]",890,85,69,–,–
"CCn1nc(C(=O)NC[C@]2(O)CC[C@@H](S(C)(=O)=O)C[C@H]2O)c(Cl)c1-c1ccc(CC(C)(C)C(F)(F)F)nc1OC(F)F (stereo in doubt) [Example 47, 4-Chloro-5-(2-(difluoromethoxy)-6-(3,3,3-trifluoro-2,2-dimethylpropyl)pyridin-3-yl)-N-(((1R*,2R*,4R*)-1,2-dihydroxy-4-(methylsulfonyl)cyclohexyl)methyl)-1-ethyl-1H-pyrazole-3-carboxamide]",44,95,1.7,–,–
"CCn1nc(C(=O)NC[C@@]2(O)CC[C@H](S(C)(=O)=O)C[C@@H]2O)c(Cl)c1-c1ccc(CC(C)(C)C(F)(F)F)nc1OC(F)F (stereo in doubt) [Example 48, 4-Chloro-5-(2-(difluoromethoxy)-6-(3,3,3-trifluoro-2,2-dimethylpropyl)pyridin-3-yl)-N-(((1S*,2S*,4S*)-1,2-dihydroxy-4-(methylsulfonyl)cyclohexyl)methyl)-1-ethyl-1H-pyrazole-3-carboxamide]",5.7,101,2,–,–
"CCn1nc(C(=O)NC[C@]2(O)CC[C@@H](S(N)(=O)=O)CC2)c(Cl)c1-c1cnc(CC(C)(C)C(F)(F)F)cc1OC(F)F [Example 1, 4-Chloro-5-(4-(difluoromethoxy)-6-(3,3,3-trifluoro-2,2-dimethylpropyl)pyridin-3-yl)-1-ethyl-N-(((1s,4s)-1-hydroxy-4-sulfamoylcyclohexyl)methyl)-1H-pyrazole-3-carboxamide]",110,116,11,–,–
"CCn1nc(C(=O)NC[C@]2(O)CC[C@@H](S(N)(=O)=O)CC2)c(C)c1-c1cnc(CC(C)(C)C(F)(F)F)cc1OC(F)F [Example 2, 5-(4-(Difluoromethoxy)-6-(3,3,3-trifluoro-2,2-dimethylpropyl)pyridin-3-yl)-1-ethyl-N-(((1s,4s)-1-hydroxy-4-sulfamoylcyclohexyl)methyl)-4-methyl-1H-pyrazole-3-carboxamide]",930,104,29,–,–
"CCn1nc(C(=O)NC[C@H]2CC[C@H](S(=O)(=O)NC(C)=O)CC2)c(Cl)c1-c1cnc(CC(C)(C)C(F)(F)F)cc1OC(F)F [Example 5, N-(((1r,4r)-4-(N-acetylsulfamoyl)cyclohexyl)methyl)-4-chloro-5-(4-(difluoromethoxy)-6-(3,3,3-trifluoro-2,2-dimethylpropyl)pyridin-3-yl)-1-ethyl-1H-pyrazole-3-carboxamide]",430,–,8.7,–,79* %
"CCn1nc(C(=O)NC[C@H]2CC[C@H](S(=O)(=O)NC(=O)NC)CC2)c(Cl)c1-c1cnc(CC(C)(C)C(F)(F)F)cc1OC(F)F [Example 6, 4-Chloro-5-(4-(difluoromethoxy)-6-(3,3,3-trifluoro-2,2-dimethylpropyl)pyridin-3-yl)-1-ethyl-N-(((1r,4r)-4-(N-(methylcarbamoyl)sulfamoyl)cyclohexyl)methyl)-1H-pyrazole-3-carboxamide]",270,–,1.9,–,87* %
"CCn1nc(C(=O)NC[C@H]2CC[C@H](S(=O)(=O)NC(N)=O)CC2)c(Cl)c1-c1cnc(CC(C)(C)C(F)(F)F)cc1OC(F)F [Example 7, N-(((1r,4r)-4-(N-carbamoylsulfamoyl)cyclohexyl)methyl)-4-chloro-5-(4-(difluoromethoxy)-6-(3,3,3-trifluoro-2,2-dimethylpropyl)pyridin-3-yl)-1-ethyl-1H-pyrazole-3-carboxamide]",240,–,2.9,–,100* %

# Reference: patent US11034658B2, “Pyridinyl pyrazoles as modulators of RORγT” (Janssen Pharmaceutica NV, priority 2018, dated 2021)
